Test results taken from paper PMC12396409, “Screening and hit evaluation of a microbial metabolite library against the pathogenic Plasmodium falciparum and Toxoplasma gondii parasites” (International Journal for Parasitology: Drugs and Drug …, 2025).
Read-outs that look alike come from different tables or passages of the source.

How the values were obtained:
[1] = tested on: P. falciparum 3D7 parasites; test: P. falciparum growth inhibition assay, 2-cycle (120 h treatment), delayed-death screen and dose-response; format: cell-based, Plasmodium falciparum; conditions: for activity at 2 µg/mL: Plasmodium falciparum
[2] = tested on: T. gondii RH strain (RH-Tub-eYFP) tachyzoites; test: microbe, parasite or virus in culture; format: cell-based, Toxoplasma gondii; conditions: 72 h; for percent parasite growth at 2 µg/mL: Toxoplasma gondii
[3] = tested on: P. falciparum 3D7 parasites; test: P. falciparum growth inhibition assay, 1-cycle (72 h treatment), SYBR DNA staining (library screen at 2 μg/mL and dose-response); format: cell-based, Plasmodium falciparum; conditions: for activity at 2 µg/mL: Plasmodium falciparum
[4] = 3D7, 120 h, library screen at 2 μg/mL, 120 h, % growth, replicate 1, read-out: Pf_120h_%Growth_Rep1
[5] = 3D7, 120 h, library screen at 2 μg/mL, 120 h, % growth, replicate 2, read-out: Pf_120h_%Growth_Rep2
[6] = library screen at 2 μg/mL, % growth, replicate 1, read-out: Tg_72h_%Growth_Rep1
[7] = library screen at 2 μg/mL, % growth, replicate 2, read-out: Tg_72h_%Growth_Rep2
[8] = 3D7, 72 h, library screen at 2 μg/mL, 72 h, % growth, replicate 1, read-out: Pf_72h_%Growth_Rep1
[9] = 3D7, 72 h, library screen at 2 μg/mL, 72 h, % growth, replicate 2, read-out: Pf_72h_%Growth_Rep2
[10] = P. falciparum 3D7, 120 h, library screen at 2 μg/mL, % growth, replicate 1
[11] = P. falciparum 3D7, 120 h, library screen at 2 μg/mL, % growth, replicate 2
[12] = T. gondii RH, library screen at 2 μg/mL, % growth, replicate 1
[13] = T. gondii RH, library screen at 2 μg/mL, % growth, replicate 2
[14] = P. falciparum 3D7, 72 h, library screen at 2 μg/mL, % growth, replicate 1
[15] = P. falciparum 3D7, 72 h, library screen at 2 μg/mL, % growth, replicate 2
[16] = P. falciparum, 120 h, screen at 2 μg/mL, replicate 1
[17] = P. falciparum, 120 h, screen at 2 μg/mL, replicate 2
[18] = T. gondii, screen at 2 μg/mL, replicate 1
[19] = T. gondii, screen at 2 μg/mL, replicate 2
[20] = P. falciparum, 72 h, screen at 2 μg/mL, replicate 1
[21] = P. falciparum, 72 h, screen at 2 μg/mL, replicate 2
[22] = P. falciparum, 120 h, parasite screen 2 μg/mL, % growth, replicate 1
[23] = P. falciparum, 120 h, parasite screen 2 μg/mL, % growth, replicate 2
[24] = T. gondii, parasite screen 2 μg/mL, % growth, replicate 1
[25] = T. gondii, parasite screen 2 μg/mL, % growth, replicate 2
[26] = P. falciparum, 72 h, parasite screen 2 μg/mL, % growth, replicate 1
[27] = P. falciparum, 72 h, parasite screen 2 μg/mL, % growth, replicate 2

## CC(=O)Nc1c2sscc-2n(C)c1=O [Thiolutin]
[1]; 3D7, P. falciparum, 120 h, screen at 2 μg/mL, replicate 1, read-out: Pf_120h_%Growth_Rep1
  activity at 2 µg/mL: 42.4%
[1]; 3D7, P. falciparum, 120 h, screen at 2 μg/mL, replicate 2, read-out: Pf_120h_%Growth_Rep2
  activity at 2 µg/mL: 15.5%
[2]; T. gondii, screen at 2 μg/mL, replicate 1, read-out: Tg_72h_%Growth_Rep1
  percent parasite growth at 2 µg/mL: 2.01%
[2]; T. gondii, screen at 2 μg/mL, replicate 2, read-out: Tg_72h_%Growth_Rep2
  percent parasite growth at 2 µg/mL: 1.94%
[3]; 3D7, P. falciparum, 72 h, screen at 2 μg/mL, replicate 1, read-out: Pf_72h_%Growth_Rep1
  activity at 2 µg/mL: 4.59%
[3]; 3D7, P. falciparum, 72 h, screen at 2 μg/mL, replicate 2, read-out: Pf_72h_%Growth_Rep2
  activity at 2 µg/mL: 0.05%

## CCC(=O)CCCCC[C@@H]1NC(=O)[C@H]2CCCCN2C(=O)[C@H]([C@@H](C)CC)NC(=O)[C@H](Cc2cn(OC)c3ccccc23)NC1=O [Apicidin]
[1]; [4]
  activity at 2 µg/mL: 2.31%
[1]; [5]
  activity at 2 µg/mL: -15.8%
[2]; [6]
  percent parasite growth at 2 µg/mL: 6.14%
[2]; [7]
  percent parasite growth at 2 µg/mL: 0.42%
[3]; [8]
  activity at 2 µg/mL: 1.42%
[3]; [9]
  activity at 2 µg/mL: 5.38%

## CNC1=NC(=O)C(C(C)c2c[nH]c3ccccc23)O1 (stereo not shown) [BIA-I1040]
[1]; [10]
  Pf_120h_%Growth_Rep1: 17.78%
[1]; [11]
  Pf_120h_%Growth_Rep2: 16.99%
[2]; [12]
  Tg_72h_%Growth_Rep1: 45.17%
[2]; [13]
  Tg_72h_%Growth_Rep2: 47.91%
[3]; [14]
  Pf_72h_%Growth_Rep1: 33.91%
[3]; [15]
  Pf_72h_%Growth_Rep2: 55.84%

## CC1=C[C@H](C)C[C@H](C)[C@H](Cc2cnco2)OC(=O)/C(C)=C\[C@H](C)C[C@H](C)[C@H](Cc2cnco2)OC1=O [Conglobatin]
[1]; [16]
  Pf_120h_%Growth_Rep1: 82.43%
[1]; [17]
  Pf_120h_%Growth_Rep2: 72.72%
[2]; [18]
  Tg_72h_%Growth_Rep1: 127.73%
[2]; [19]
  Tg_72h_%Growth_Rep2: 88.01%
[3]; P. falciparum, 72 h, 2 μg/mL, mean of both replicates, growth (% of control)
  Mean: 52.30
[3]; [20]
  Pf_72h_%Growth_Rep1: 86.29%
[3]; [21]
  Pf_72h_%Growth_Rep2: 18.30%

## CN[C@H]1C(=O)N[C@@H]2Cc3ccc(cc3)Oc3cc4cc(c3O[C@@H]3O[C@H](C(=O)O)[C@@H](O)[C@H](O)[C@H]3NC(=O)CCCCCCCCC(C)C)Oc3ccc(cc3Cl)[C@@H](O)[C@@H]3NC(=O)[C@H](NC(=O)[C@@H]4NC(=O)[C@@H](NC2=O)c2cc(cc(O)c2Cl)Oc2cc1ccc2O)c1ccc(O)c(c1)-c1c(O[C@H]2O[C@H](CO)[C@@H](O)[C@H](O)[C@@H]2O)cc(O)cc1[C@@H](C(=O)NCCCN(C)C)NC3=O [Dalbavancin]
[1]; [16]
  Pf_120h_%Growth_Rep1: 61.95%
[1]; [17]
  Pf_120h_%Growth_Rep2: 91.53%
[2]; [18]
  Tg_72h_%Growth_Rep1: 148.88%
[2]; [19]
  Tg_72h_%Growth_Rep2: 101.28%
[3]; [20]
  Pf_72h_%Growth_Rep1: 84.83%
[3]; [21]
  Pf_72h_%Growth_Rep2: 84.70%

## CC1=C[C@]2(C)/C=C(C)/C=C/C[C@@H](O)/C=C3C=C/C(=C4\C(=O)O[C@]2(C[C@@H]1C)C4=O)OC/3 [Spirohexenolide A]
[1]; [22]
  Pf_120h_%Growth_Rep1: 19.42%
[1]; [23]
  Pf_120h_%Growth_Rep2: -9.19%
[2]; [24]
  Tg_72h_%Growth_Rep1: 115.19%
[2]; [25]
  Tg_72h_%Growth_Rep2: 70.63%
[3]; [26]
  Pf_72h_%Growth_Rep1: 8.85%
[3]; [27]
  Pf_72h_%Growth_Rep2: 0.46%

## CCCC(=O)N[C@H]1CCOC1=O [Butyryl-L-homoserine lactone]
[1]; [16]
  Pf_120h_%Growth_Rep1: 71.18%
[1]; [17]
  Pf_120h_%Growth_Rep2: 93.77%
[2]; [18]
  Tg_72h_%Growth_Rep1: 135.04%
[2]; [19]
  Tg_72h_%Growth_Rep2: 102.04%
[3]; [20]
  Pf_72h_%Growth_Rep1: 70.61%
[3]; [21]
  Pf_72h_%Growth_Rep2: 82.94%

## CC(C)[C@@H]1NC(=O)[C@H](Cc2ccccc2)NC1=O [Cyclo(L-Phe-L-Val)]
[1]; [16]
  Pf_120h_%Growth_Rep1: 67.70%
[1]; [17]
  Pf_120h_%Growth_Rep2: 97.99%
[2]; [18]
  Tg_72h_%Growth_Rep1: 132.95%
[2]; [19]
  Tg_72h_%Growth_Rep2: 103.43%
[3]; [20]
  Pf_72h_%Growth_Rep1: 85.66%
[3]; [21]
  Pf_72h_%Growth_Rep2: 90.47%

## COC1=CC(=O)C[C@@H](C)[C@]12Oc1c(Cl)c(OC)cc(OC)c1C2=O [BIA-G1212]
[1]; [10]
  Pf_120h_%Growth_Rep1: 92.82%
[1]; [11]
  Pf_120h_%Growth_Rep2: 104.36%
[2]; [12]
  Tg_72h_%Growth_Rep1: 123.15%
[2]; [13]
  Tg_72h_%Growth_Rep2: 96.50%
[3]; [14]
  Pf_72h_%Growth_Rep1: 92.41%
[3]; [15]
  Pf_72h_%Growth_Rep2: 108.96%

## CO[C@@H]1[C@H](OC(=O)/C=C/C=C/C=C/C=C/C(=O)O)CC[C@]2(CO2)[C@H]1[C@@]1(C)O[C@@H]1CC=C(C)C [Fumagillin]
[1]; [4]
  activity at 2 µg/mL: 7.49%
[1]; [5]
  activity at 2 µg/mL: 7.63%
[2]; [6]
  percent parasite growth at 2 µg/mL: 31%
[2]; [7]
  percent parasite growth at 2 µg/mL: 30.7%
[3]; [8]
  activity at 2 µg/mL: 10.6%
[3]; [9]
  activity at 2 µg/mL: 6.01%

## C=C1CC[C@H](OC(C)=O)C(C)(C)[C@@H]1CC/C(C)=C/CC/C(C)=C/Cc1c(O)cc(C)oc1=O [Sartorypyrone A]
[1]; [22]
  Pf_120h_%Growth_Rep1: 16.39%
[1]; [23]
  Pf_120h_%Growth_Rep2: 52.54%
[2]; [24]
  Tg_72h_%Growth_Rep1: 82.97%
[2]; [25]
  Tg_72h_%Growth_Rep2: 82.11%
[3]; [26]
  Pf_72h_%Growth_Rep1: 32.17%
[3]; [27]
  Pf_72h_%Growth_Rep2: 81.37%
